Measurements published in ChEMBL document CHEMBL3885881, “DrugMatrix”.

Species: Rattus norvegicus
Assay: DrugMatrix - Regimen: Daily Repeat
Assay type: toxicity, organism-based, Sprague-Dawley
Parameters: regimen Daily Repeat, gender Male, age 6-8 weeks
Conditions: in vivo, route none, vehicle 100 % UNTREATED; for BASOPHIL / ERYTHROCYTE COUNT / HEMATOCRIT / HEMOGLOBIN / LEUKOCYTE COUNT / LYMPHOCYTE / MEAN CORPUSCULAR HEMOGLOBIN / MEAN CORPUSCULAR HEMOGLOBIN CONCENTRATION / MONOCYTE / NEUTROPHIL / NUCLEATED RED BLOOD CELLS / PLATELET COUNT / ABSOLUTE BASOPHIL / ABSOLUTE EOSINOPHIL / ABSOLUTE LYMPHOCYTE / ABSOLUTE MONOCYTE / ABSOLUTE SEGMENTED NEUTROPHIL / EOSINOPHIL / MEAN CORPUSCULAR VOLUME: tissue Blood
[1] = 60 mg/kg, 120 h, dose level M1, time 5 day
[2] = 60 mg/kg, 120 h, tissue Plasma, dose level M1, time 5 day
[3] = 60 mg/kg, […], dose level M1, time 14 day
[4] = 60 mg/kg, […], tissue Plasma, dose level M1, time 14 day
[5] = 75 mg/kg, 120 h, dose level High, time 5 day
[6] = 75 mg/kg, 120 h, tissue Plasma, dose level High, time 5 day
[7] = 75 mg/kg, […], dose level High, time 14 day
[8] = 75 mg/kg, […], tissue Plasma, dose level High, time 14 day

Diet_Restriction
BASOPHIL [1]: 0% | ERYTHROCYTE COUNT [1]: 5.22 x10E6/uL | HEMATOCRIT [1]: 32.2% | HEMOGLOBIN [1]: 11.93 G/DL | LEUKOCYTE COUNT [1]: 4.3 x10E3/uL | LYMPHOCYTE [1]: 87.33% | MEAN CORPUSCULAR HEMOGLOBIN [1]: 22.9 pg | MEAN CORPUSCULAR HEMOGLOBIN CONCENTRATION [1]: 37.1 G/DL | MONOCYTE [1]: 0.67% | NEUTROPHIL [1]: 10.67% | NUCLEATED RED BLOOD CELLS [1]: 0 /100WBC | PLATELET COUNT [1]: 765.33 x10E3/uL | ALANINE AMINOTRANSFERASE [2]: 32.33 u/L | ALBUMIN [2]: 4.3 G/DL | ALKALINE PHOSPHATASE [2]: 267.33 u/L | ASPARTATE AMINOTRANSFERASE [2]: 64.33 u/L | BLOOD UREA NITROGEN [2]: 6.33 mg/dL | CARBON DIOXIDE [2]: 31.33 mmol/L | CHOLESTEROL [2]: 52 mg/dL | CREATINE PHOSPHOKINASE [2]: 263 u/L | CREATININE [2]: 0.14 mg/dL | GLUCOSE [2]: 137.33 mg/dL | LACTATE DEHYDROGENASE [2]: 96 u/L | PHOSPHORUS [2]: 10.27 mg/dL | POTASSIUM [2]: 5.6 MEQ/L | TOTAL BILIRUBIN [2]: 0.1 mg/dL | TOTAL PROTEIN [2]: 5.93 G/DL | ABSOLUTE BASOPHIL [3]: 0 CELLS/uL | ABSOLUTE EOSINOPHIL [3]: 64 CELLS/uL | ABSOLUTE LYMPHOCYTE [3]: 14236 CELLS/uL | ABSOLUTE MONOCYTE [3]: 39.33 CELLS/uL | ABSOLUTE SEGMENTED NEUTROPHIL [3]: 894 CELLS/uL | BASOPHIL [3]: 0% | EOSINOPHIL [3]: 0.33% | ERYTHROCYTE COUNT [3]: 6.6 x10E6/uL | HEMATOCRIT [3]: 37.43% | LEUKOCYTE COUNT [3]: 15.23 x10E3/uL | LYMPHOCYTE [3]: 92.67% | MEAN CORPUSCULAR HEMOGLOBIN [3]: 21.37 pg | MEAN CORPUSCULAR HEMOGLOBIN CONCENTRATION [3]: 37.67 G/DL | MEAN CORPUSCULAR VOLUME [3]: 56.73 fL | MONOCYTE [3]: 0.33% | NEUTROPHIL [3]: 6.67% | NUCLEATED RED BLOOD CELLS [3]: 0 /100WBC | PLATELET COUNT [3]: 800.67 x10E3/uL | ALANINE AMINOTRANSFERASE [4]: 47 u/L | ALBUMIN [4]: 4.4 G/DL | ALKALINE PHOSPHATASE [4]: 256 u/L | ASPARTATE AMINOTRANSFERASE [4]: 114.33 u/L | BLOOD UREA NITROGEN [4]: 15 mg/dL | CARBON DIOXIDE [4]: 25 mmol/L | CHOLESTEROL [4]: 65 mg/dL | CREATINE PHOSPHOKINASE [4]: 1426.33 u/L | CREATININE [4]: 0.23 mg/dL | GLUCOSE [4]: 165.33 mg/dL | LACTATE DEHYDROGENASE [4]: 131.33 u/L | LIPASE [4]: 12 u/L | PHOSPHORUS [4]: 11.63 mg/dL | POTASSIUM [4]: 5.69 MEQ/L | TOTAL BILIRUBIN [4]: 0.17 mg/dL | TOTAL PROTEIN [4]: 6.17 G/DL | ABSOLUTE BASOPHIL [5]: 0 CELLS/uL | ABSOLUTE EOSINOPHIL [5]: 35.33 CELLS/uL | ABSOLUTE LYMPHOCYTE [5]: 3939.33 CELLS/uL | ABSOLUTE MONOCYTE [5]: 67.67 CELLS/uL | ABSOLUTE SEGMENTED NEUTROPHIL [5]: 957.67 CELLS/uL | BASOPHIL [5]: 0% | EOSINOPHIL [5]: 0.67% | ERYTHROCYTE COUNT [5]: 5.54 x10E6/uL | HEMATOCRIT [5]: 33.63% | HEMOGLOBIN [5]: 12.8 G/DL | LEUKOCYTE COUNT [5]: 5 x10E3/uL | LYMPHOCYTE [5]: 79% | MEAN CORPUSCULAR HEMOGLOBIN [5]: 23.13 pg | MEAN CORPUSCULAR HEMOGLOBIN CONCENTRATION [5]: 38.07 G/DL | NEUTROPHIL [5]: 19% | NUCLEATED RED BLOOD CELLS [5]: 0 /100WBC | PLATELET COUNT [5]: 1074.67 x10E3/uL | ALANINE AMINOTRANSFERASE [6]: 49.33 u/L | ALBUMIN [6]: 4.3 G/DL | ALKALINE PHOSPHATASE [6]: 317.33 u/L | ASPARTATE AMINOTRANSFERASE [6]: 72 u/L | BLOOD UREA NITROGEN [6]: 9.33 mg/dL | CARBON DIOXIDE [6]: 35 mmol/L | CHOLESTEROL [6]: 65.67 mg/dL | CREATINE PHOSPHOKINASE [6]: 288.33 u/L | CREATININE [6]: 0.15 mg/dL | GLUCOSE [6]: 136.33 mg/dL | LACTATE DEHYDROGENASE [6]: 95.67 u/L | PHOSPHORUS [6]: 11.33 mg/dL | POTASSIUM [6]: 6.01 MEQ/L | SODIUM [6]: 146.17 MEQ/L | TOTAL BILIRUBIN [6]: 0.1 mg/dL | TOTAL PROTEIN [6]: 6.23 G/DL | URIC ACID [6]: 1 mg/dL | ABSOLUTE BASOPHIL [7]: 0 CELLS/uL | ABSOLUTE EOSINOPHIL [7]: 0 CELLS/uL | ABSOLUTE LYMPHOCYTE [7]: 13779.33 CELLS/uL | ABSOLUTE MONOCYTE [7]: 115 CELLS/uL | ABSOLUTE SEGMENTED NEUTROPHIL [7]: 2472.33 CELLS/uL | BASOPHIL [7]: 0% | EOSINOPHIL [7]: 0% | ERYTHROCYTE COUNT [7]: 6.39 x10E6/uL | HEMATOCRIT [7]: 35.97% | HEMOGLOBIN [7]: 13.47 G/DL | LEUKOCYTE COUNT [7]: 16.37 x10E3/uL | LYMPHOCYTE [7]: 84.33% | MEAN CORPUSCULAR HEMOGLOBIN [7]: 21.13 pg | MEAN CORPUSCULAR HEMOGLOBIN CONCENTRATION [7]: 37.47 G/DL | MEAN CORPUSCULAR VOLUME [7]: 56.37 fL | MONOCYTE [7]: 0.67% | NEUTROPHIL [7]: 15% | NUCLEATED RED BLOOD CELLS [7]: 0 /100WBC | PLATELET COUNT [7]: 941 x10E3/uL | ALANINE AMINOTRANSFERASE [8]: 51 u/L | ALKALINE PHOSPHATASE [8]: 319.33 u/L | ASPARTATE AMINOTRANSFERASE [8]: 77.33 u/L | BLOOD UREA NITROGEN [8]: 14 mg/dL | CHLORIDE [8]: 99.67 MEQ/L | CHOLESTEROL [8]: 64.33 mg/dL | CREATINE PHOSPHOKINASE [8]: 271.33 u/L | CREATININE [8]: 0.23 mg/dL | GLUCOSE [8]: 175 mg/dL | LACTATE DEHYDROGENASE [8]: 113 u/L | LIPASE [8]: 20.33 u/L | PHOSPHORUS [8]: 12.13 mg/dL | POTASSIUM [8]: 5.75 MEQ/L | TOTAL BILIRUBIN [8]: 0.13 mg/dL | TOTAL PROTEIN [8]: 6.1 G/DL | URIC ACID [8]: 1.3 mg/dL
